Source: patent publication US8933071B2, “Dimethyl fasudil for inducing polyploidization of megakaryocytes and for treating blood and bone marrow diseases and disorders” (Northwestern University, priority 2008, dated 2015)

Experiments:
[1] = tested on: Y10 cells; test: Polyploidization of Y10 cells (DNA content by flow cytometry); type: cell-based; conditions: wild-type (Y10) cells, 72 hours
Method: (§1) FIG. 2 illustrates that SU6656 induces polyploidization and proliferative arrest of megakaryocytic leukemia cells. (A) Y10, (B) GIME, and (C) CMK cells were grown in the presence of TPO, SU6656, or vehicle (DMSO) for 72 hours. DNA content was measured by flow cytometry. The percentages of cells that reach a DNA content of ≧8N are boxed in A and C, those equal to 8N are boxed in B. D) CMK cells were grown as in (C), and cell numbers were enumerated at 0, 24, 48 and 72 h.
(§2) To study how megakaryocytes switch from a proliferative to endomitotic cell cycle, the Src kinase inhibitor SU6656 is being utilized.

[2] = tested on: GIME cells; test: Polyploidization of GIME cells (DNA content by flow cytometry); type: cell-based; conditions: GATA1-null (GIME) cells, 72 hours
Method: as §1, with “(A)” for “FIG. 2 illustrates that SU6656 induces polyploidization and proliferative arrest of megakaryocytic leukemia cells. (A)”
DNA content was then assessed by flow cytometry. Numbers above the bar indicate % of cells ≧8N. b) After 48 hours, GIME cells from a) were stained with anti-CD42 antibodies and the cell surface expression of CD42 was evaluated by flow cytometry.
as §2

[3] = tested on: wild-type and GATA-1 mutant megakaryocyte progenitors; test: Proliferation of megakaryocyte progenitors; type: cell-based; conditions: preliminary data
Description: The paradigm for successful, targeted differentiation therapy is the use of all trans retinoic acid (ATRA) for treatment of Acute Promyelocytic Leukemia (APL) (for a review, see (20). Prior to the development of ATRA therapy, the prognosis for patients with APL, which represents 5-10% of adult AML, was very poor. In contrast, the vast majority of APL patients treated with ATRA achieve hematologic remission (21-23). One aim of the current study is to test novel therapeutic strategies for AMKL, in particular, whether the forced induction of MK polyploidization can serve as a “differentiation therapy” for AMKL. […] Furthermore, megakaryocytes are one of the few cell types that are poised to undergo polyploidization during normal maturation.

[4] = tested on: CMK (human megakaryocytic leukemia) cells; test: High throughput screen for inducers of megakaryocyte polyploidization; type: cell-based; conditions: 10 μM, 72 hours, Hoescht stain, high content imaging
Method: In collaboration with the Broad Institute, a high throughput screen for small molecules was conducted to identify small molecules that preferentially induce polyploidization or differentiation of megakaryocytes. We screened 10,000 compounds from the Broad's extensive collection of small molecules (including known bioactives, kinase and HDAC inhibitors, and natural products) to identify inducers of megakaryocyte polyploidization. The screen was performed in the following manner: 1) 4,000 CMK (human megakaryocytic leukemia) cells were plated into each well of a 384-well plate, 2) 100 n1 of compounds (yielding a final concentration of 10 μM) were pinned into the wells, 3) plates were incubated at 37° C. for 72 hours, 4) cells were fixed and stained with Hoescht, and 5) plates were imaged using an ImageXpressMICRO high content imager with 20× objective. Nine images per well were collected. 6) Data were analyzed using both MetaXpress software and “Cell Profiler,” software designed at MIT and the Broad Institute. Seventy-two plates containing duplicates of nearly 10,000 small molecules were screened.

[5] = tested on: CMK cells; test: CMK cell proliferation (cell numbers enumerated); type: cell-based, human; conditions: CMK cells, 0, 24, 48 and 72 h
Method: as §1, §2

[6] = tested on: primary murine megakaryocytes; test: Polyploidization of primary murine megakaryocytes; type: cell-based; conditions: data not shown
Description: as §2

[7] = tested on: CMK cells; test: Polyploidization of CMK cells (DNA content); type: cell-based, human; conditions: GATA1/JAK3 double mutant CMK cell line, 72 hours
Method: as §1, with “(A)” for “FIG. 2 illustrates that SU6656 induces polyploidization and proliferative arrest of megakaryocytic leukemia cells. (A)”
as §2
In collaboration with the Broad Institute, a high throughput screen for small molecules was conducted to identify small molecules that preferentially induce polyploidization or differentiation of megakaryocytes. We screened 10,000 compounds from the Broad's extensive collection of small molecules (including known bioactives, kinase and HDAC inhibitors, and natural products) to identify inducers of megakaryocyte polyploidization. […] 6) Data were analyzed using both MetaXpress software and “Cell Profiler,” software designed at MIT and the Broad Institute. […]

## CN(C)S(=O)(=O)c1ccc2c(c1)/C(=C/c1cc3c([nH]1)CCCC3)C(=O)N2 [SU6656]
[1]
  polyploidization: efficiently promoted polyploidization
[2]
  polyploidization: efficiently promoted polyploidization
[3]
  proliferation of megakaryocyte progenitors: effectively reduces proliferation
[4]
  positive in polyploidization screen: positives
[5]
  proliferation (cell numbers): cessation of proliferation
[6]
  polyploidization: promote polyploidization
[7]
  polyploidization: efficiently promoted polyploidization
